According to ChEMBL document CHEMBL4052722, “Virtual screening, synthesis and biological evaluation of DNA intercalating antiviral agents” (Bioorg Med Chem Lett, 2017):

organism: Bos taurus; assay: Displacement of ethidium bromide from calf thymus DNA by fluorescence binding assay

| Structure (SMILES) | log Ka |
| --- | --- |
| CC1CCCCN1CCCn1c2ccccc2c2nc3ccccc3nc21 (stereo not given) | 6.28 |
| CCN(CC)CCOC(=O)Cn1c2ccccc2c2nc3ccccc3nc21 | 5.42 |
| CCN(CC)CCCNC(=O)CCN1C(=O)c2cccc3cccc(c23)C1=O | 5.79 |
| OCCNCCCCn1c2ccccc2c2nc3ccccc3nc21 | 5.96 |
| O=C(CCCn1c2ccccc2c2nc3ccccc3nc21)OCCCN1CCOCC1 | 5.35 |
| CCN(CC)CCCOC(=O)Cn1c2ccccc2c2nc3ccccc3nc21 | 5.17 |
| CN(C)CCCCCCn1c2ccccc2c2nc3ccccc3nc21 | 5.81 |
| CCCN(CCC)CCCn1c2ccccc2c2nc3ccccc3nc21 | 6.13 |
| CCN(CC)CCn1c2ccc3ccccc3c2c2nc3ccccc3nc21 | 6.79 |
| O=C(CCN1CCCCC1)N/N=C1\C(=O)Nc2ccccc21 | 5.92 |
| CN(C)CCCCn1c2ccccc2c2nc3ccccc3nc21 | 5.61 |
| CCN(CC)CCOC(=O)CCCn1c2ccccc2c2nc3ccccc3nc21 | 5.45 |
| CN1CCN(CC(=O)N/N=C2\C(=O)Nc3ccccc32)CC1 | 5.43 |
| OCCNCCn1c2ccc3ccccc3c2c2nc3ccccc3nc21 | 6.8 |
| CCN(CC)CC(=O)N/N=C1\C(=O)Nc2ccccc21 | 5.96 |
| CCN(CC)CCN1C(=O)/C(=N\NC(=O)CN2CCC(C)CC2)c2ccccc21 | 6.47 |
| c1ccc2nc3c(nc2c1)c1ccccc1n3CCCN1CCCCC1 | 6.04 |
| CC1CCN(CCC(=O)N/N=C2\C(=O)Nc3ccccc32)CC1 | 5.91 |
| O=C(CCCN1C(=O)c2cccc3cccc(c23)C1=O)NCCCN1CCOCC1 | 5.07 |
| CCCN(CCC)CCCCn1c2ccccc2c2nc3ccccc3nc21 | 5.49 |
| CCN(CC)CCCNC(=O)CCCCCN1C(=O)c2cccc3cccc(c23)C1=O | 6.81 |
| O=C(CN1CCCCCC1)N/N=C1\C(=O)Nc2ccccc21 | 5.49 |
| c1ccc2nc3c(nc2c1)c1ccccc1n3CCOCCN1CCCCC1 | 5.19 |

| Structure (SMILES) | log Ka |
| --- | --- |
| O=C(Cn1c2ccccc2c2nc3ccccc3nc21)OCCCN1CCOCC1 | 5.14 |
| CCN(CC)CCCCCn1c2ccccc2c2nc3ccccc3nc21 | 5.61 |
| CCN(CC)CCCNC(=O)CCCN1C(=O)c2cccc3cccc(c23)C1=O | 6.21 |
| CCN(CC)CCCCCCn1c2ccccc2c2nc3ccccc3nc21 | 5.65 |
| CN(C)CCCOC(=O)CCCn1c2ccccc2c2nc3ccccc3nc21 | 5.32 |
| CN1CCN(CCn2c3ccc4ccccc4c3c3nc4ccccc4nc32)CC1 | 6.58 |
| CCN(CC)CC(=O)N/N=C1/C(=O)Nc2ccc3ccccc3c21 | 6.3 |
| c1ccc2nc3c(nc2c1)c1ccccc1n3CCN1CCCCC1 | 6.01 |
| c1ccc2nc3c(nc2c1)c1ccccc1n3CCCCN1CCCCC1 | 5.93 |
| CCN(CC)CCN1C(=O)/C(=N\NC(=O)CCN2CCCCC2)c2ccccc21 | 5.39 |
| CC1CCN(CCn2c3ccc4ccccc4c3c3nc4ccccc4nc32)CC1 | 6.83 |
| O=C(CN1CCOCC1)N/N=C1/C(=O)Nc2ccc3ccccc3c21 | 6.76 |
| O=C(CCN1C(=O)c2cccc3cccc(c23)C1=O)NCCN1CCOCC1 | 5.78 |
| CN(C)CCCNC(=O)CCCCCN1C(=O)c2cccc3cccc(c23)C1=O | 6.1 |
| c1ccc2nc3c(nc2c1)c1ccccc1n3CCN1CCCC1 | 6.05 |
| CCCN(CCC)CCn1c2ccccc2c2nc3ccccc3nc21 | 6.09 |
| CCCN(CCC)CCn1c2ccc3ccccc3c2c2nc3ccccc3nc21 | 6.91 |
| CN(C)CCOC(=O)Cn1c2ccccc2c2nc3ccccc3nc21 | 5.46 |
| CC1CCCCN1CCn1c2ccc3ccccc3c2c2nc3ccccc3nc21 (stereo not given) | 6.83 |
| O=C(CCCCCN1C(=O)c2cccc3cccc(c23)C1=O)NCCCN1CCOCC1 | 6.03 |
| OCCNCCCn1c2ccccc2c2nc3ccccc3nc21 | 6.4 |
| c1ccc2nc3c(nc2c1)c1ccccc1n3CCN1CCOCC1 | 5.89 |

system: Vesicular stomatitis virus; assay: Antiviral activity against Vesicular stomatitis virus at 0.2 to 620 uM after 24 hrs post infection relative to control; type: functional

| Structure (SMILES) | Activity [%] |
| --- | --- |
| CC1CCCCN1CCCn1c2ccccc2c2nc3ccccc3nc21 (stereo not given) | 56 |
| CCN(CC)CCOC(=O)Cn1c2ccccc2c2nc3ccccc3nc21 | 45 |
| CCN(CC)CCCNC(=O)CCN1C(=O)c2cccc3cccc(c23)C1=O | 10 |
| OCCNCCCCn1c2ccccc2c2nc3ccccc3nc21 | 32 |
| O=C(CCCn1c2ccccc2c2nc3ccccc3nc21)OCCCN1CCOCC1 | 100 |
| CCN(CC)CCCOC(=O)Cn1c2ccccc2c2nc3ccccc3nc21 | 0 |
| CN(C)CCCCCCn1c2ccccc2c2nc3ccccc3nc21 | 82 |
| CCCN(CCC)CCCn1c2ccccc2c2nc3ccccc3nc21 | 41 |
| CCN(CC)CCn1c2ccc3ccccc3c2c2nc3ccccc3nc21 | 14 |
| O=C(CCN1CCCCC1)N/N=C1\C(=O)Nc2ccccc21 | 0 |
| CN(C)CCCCn1c2ccccc2c2nc3ccccc3nc21 | 30 |
| CCN(CC)CCOC(=O)CCCn1c2ccccc2c2nc3ccccc3nc21 | 0 |
| CN1CCN(CC(=O)N/N=C2\C(=O)Nc3ccccc32)CC1 | 80 |
| OCCNCCn1c2ccc3ccccc3c2c2nc3ccccc3nc21 | 20 |
| CCN(CC)CC(=O)N/N=C1\C(=O)Nc2ccccc21 | 80 |
| CCN(CC)CCN1C(=O)/C(=N\NC(=O)CN2CCC(C)CC2)c2ccccc21 | 100 |
| c1ccc2nc3c(nc2c1)c1ccccc1n3CCCN1CCCCC1 | 28 |
| CC1CCN(CCC(=O)N/N=C2\C(=O)Nc3ccccc32)CC1 | 80 |
| O=C(CCCN1C(=O)c2cccc3cccc(c23)C1=O)NCCCN1CCOCC1 | 30 |
| CCCN(CCC)CCCCn1c2ccccc2c2nc3ccccc3nc21 | 13 |
| CCN(CC)CCCNC(=O)CCCCCN1C(=O)c2cccc3cccc(c23)C1=O | 50 |
| O=C(CN1CCCCCC1)N/N=C1\C(=O)Nc2ccccc21 | 80 |
| c1ccc2nc3c(nc2c1)c1ccccc1n3CCOCCN1CCCCC1 | 51 |

| Structure (SMILES) | Activity [%] |
| --- | --- |
| O=C(Cn1c2ccccc2c2nc3ccccc3nc21)OCCCN1CCOCC1 | 15 |
| CCN(CC)CCCCCn1c2ccccc2c2nc3ccccc3nc21 | 12 |
| CCN(CC)CCCNC(=O)CCCN1C(=O)c2cccc3cccc(c23)C1=O | 15 |
| CCN(CC)CCCCCCn1c2ccccc2c2nc3ccccc3nc21 | 75 |
| CN(C)CCCOC(=O)CCCn1c2ccccc2c2nc3ccccc3nc21 | 100 |
| CN1CCN(CCn2c3ccc4ccccc4c3c3nc4ccccc4nc32)CC1 | 17 |
| CCN(CC)CC(=O)N/N=C1/C(=O)Nc2ccc3ccccc3c21 | 30 |
| c1ccc2nc3c(nc2c1)c1ccccc1n3CCN1CCCCC1 | 90 |
| c1ccc2nc3c(nc2c1)c1ccccc1n3CCCCN1CCCCC1 | 11 |
| CCN(CC)CCN1C(=O)/C(=N\NC(=O)CCN2CCCCC2)c2ccccc21 | 100 |
| CC1CCN(CCn2c3ccc4ccccc4c3c3nc4ccccc4nc32)CC1 | 30 |
| O=C(CN1CCOCC1)N/N=C1/C(=O)Nc2ccc3ccccc3c21 | 15 |
| O=C(CCN1C(=O)c2cccc3cccc(c23)C1=O)NCCN1CCOCC1 | 5 |
| CN(C)CCCNC(=O)CCCCCN1C(=O)c2cccc3cccc(c23)C1=O | 100 |
| c1ccc2nc3c(nc2c1)c1ccccc1n3CCN1CCCC1 | 85 |
| CCCN(CCC)CCn1c2ccccc2c2nc3ccccc3nc21 | 90 |
| CCCN(CCC)CCn1c2ccc3ccccc3c2c2nc3ccccc3nc21 | 16 |
| CN(C)CCOC(=O)Cn1c2ccccc2c2nc3ccccc3nc21 | 0 |
| CC1CCCCN1CCn1c2ccc3ccccc3c2c2nc3ccccc3nc21 (stereo not given) | 20 |
| O=C(CCCCCN1C(=O)c2cccc3cccc(c23)C1=O)NCCCN1CCOCC1 | 50 |
| OCCNCCCn1c2ccccc2c2nc3ccccc3nc21 | 37 |
| c1ccc2nc3c(nc2c1)c1ccccc1n3CCN1CCOCC1 | 85 |
